The text below walks through data of US7910568B2, “Derivatives of 4- or 5-aminosalicylic acid” (Antibe Therapeutics Inc., priority 2005, dated 2011).

Data set [1] can be described thus: Viability of HT-29 human colon cancer cells, MTT assay. It counts as cell-based. Particulars: HT-29 colon cancer cells, 72 h exposure, HT-29, MTT, read-out: Cell viability rate as a percent of the vehicle (DMSO)-treated cells. The procedure:
HT-29 cells were grown in culture using standard methods. The cells were exposed to vehicle (DMSO), mesalamine or Compound XXXV. Concentrations ranging from 0.1 to 10 μM were tested, with each concentration tested in 6 wells. At the end of 72 h of exposure to the test drugs, cell viability was measured using the MTT [3-(4,5-dimethylthiaxol-2-yl)-2,5-diphenyltetrazolium bromide] assay (Carmichael et al. (1978) Cancer Res. 47, 936-942), incorporated herein by reference.

For a further data set, the system named is TNBS-induced colitis. Kind of data set: TNBS-induced colitis in mice, disease activity score. It counts as in vivo. The procedure: A standard experimental animal model of colitis induced by intracolonic administration of 2,4,6-trinitrobenzene sulfonic acid (TNBS) to mice is used in the following example. A detailed description of this model has been published (Santucci et al. (2003) Gastroenterology 124:1381-94) and is incorporated herein by reference. Briefly, 6-8 week old Balb/c mice were given TNBS intracolonically at a dose of 1.5 mg in 0.1 mL of 30% ethanol. The mice were randomized to the various treatment groups (n=6 per group). Beginning one hour later and continuing every 12 h for 5 days, the mice were treated orally with vehicle (1% carboxymethylcellulose (CMC)), 5-ASA (mesalamine) (25, 50 or 75 mg/kg) or with equimolar doses of 2-hydroxy-5-amino-benzoic acid 4-(thioxo-5H-[1,2]dithiol-3-yl)-phenyl ester hydrochloride (Compound XXXV) (130 mg/kg), or with […] (100 mg/kg), 50% (66 mg/kg) and 25% (33 mg/kg) of that dose. The mice were evaluated (blindly) on the final day of the study for the presence of diarrhea and fecal occult blood, and their body weights were measured. […] After sacrifice, a sample of the colon was excised for measurement of myeloperoxidase (MPO) activity, as a marker of granulocyte infiltration. All results were compared to those obtained with healthy mice as well.

For the compound `Nc1ccc(O)c(C(=O)Oc2ccc(-c3cc(=S)ss3)cc2)c1` [Compound XXXV, 5-Amino-2-hydroxy-benzoic acid 4-(5-thioxo-5H-[1,2]dithiol-3-yl)-phenyl ester], the viability at 72 h, 0.1 µM in data set [1] (0.1 μM) is 88.4 ± 2.9%. The viability at 72 h, 1 µM in data set [1] (1 μM) is 87.3 ± 2.3%. Besides, the viability at 72 h, 10 µM in data set [1] (10 μM) is 79.6 ± 1.9%. Also, in the data set with TNBS-induced colitis (Compound XXXV 130 mg/kg vs mesalamine 50 mg/kg, ADT-OH 80 mg/kg and their mixture, FIG. 3), the “Disease Activity Index” value was “almost twice as effective as either mesalamine alone, ADT-OH alone or a mixture of mesalamine and ADT-OH”. Besides, in the data set on TNBS-induced colitis (dose equimolar to 50 mg/kg mesalamine), the “Every endpoint of FIGS. 7-14 (MPO activity, disease activity score, colonic mRNA expression)” value is listed as “superior to mesalamine in every endpoint”. Also, the Disease activity score result in the data set on TNBS-induced colitis (dose-ranging, oral every 12 h for 5 days, equimolar doses of 50 mg/kg and 75 mg/kg mesalamine, FIG. 1) is “superior to mesalamine in reducing the activity score”.
